US20240065261A1, “PENETRATING CRYOPROTECTION AGENTS AND METHODS OF MAKING AND USING SAME” (The Research Foundation for The State University of New York, priority 2020, published 2024)
Values joined by “and” are separate entries in the source; they are usually repeats but may differ in a detail not shown here. Identical values can stand only once.

Experiments:
[1] = test system: 3T3 cells; test: Cryopreservation, post-thaw recovery rate, Example 3; type: cell-based; settings: frozen −80° C. in medium with 400 mM trehalose
Method: Cryopreservation: The cryopreservation effects of EGL-3Pro and EGL-3Phe were tested on 3T3 cells. The cells were incubated with 5 mM or 10 mM EGL-3Pro or 0.5 mM EGL-3Phe or medium only (two control groups) for 72 hours. After incubation, the cells were detached by treating […] pelleted by centrifuging (200×g). The cells were then resuspended in medium with 400 mM trehalose or 5% DMSO (for control 2 group) in cryovials and a small portion of cell suspension were used for counting pre-freeze cell number. The vials were directly put in −80° C. freezer and stored for at least 3 days. The cells were thawed in 37° C. water bath until ice melt, and resuspended in 10 mL fresh medium and pelleted by centrifuging (200×g). The cells were then resuspended in 1 mL fresh medium and counted by cell counter. The recovery rate was obtained by dividing post-thaw lived cell number by pre-freeze lived cell number.

[2] = Water solubility; type: physicochemical; settings: pH 7.4, aqueous buffer
[3] = test system: 3T3 cells; test: Cytotoxicity by CCK-8 kit, Example 3; type: cell-based; settings: 48 hours
Method: Cytotoxicity: Cytotoxicity of EGL-3Pro and EGL-3Phe were tested by CCK-8 kit on 3T3 cells after incubating for 48 hours at different concentrations.

[4] = test system: NIH-3T3 cells; test: Post-thaw total cell recovery of cryopreserved cells (trypan blue exclusion); type: cell-based; settings: for Total recovery values compared with cells frozen in media containing 5% DMSO: incubated with 10 mM; for Post-thaw recovery (%) 0-hr / Post-thaw recovery (%) 24-hr / Post-thaw recovery (%) 48-hr: incubated with 10 mM for 48 h, frozen −80° C. 72 h in media with 400 mM trehalose, ±SEM
Method: The delivery of sugar alcohols into cells makes it possible to turn these molecules into intracellular CPAs. […] Total post-thaw cell recovery, defined as the ratio (%) of post-thaw live cells to the number of initially frozen live cells, which provides a more accurate measure of cryoprotective outcome than cell viability, was used to assess the cryoprotective effects of the diesters.
Systematic studies were then performed by incubating the cells (1) with each of diesters 1-4 (10 mM), (2) with unmodified sorbitol, mannitol, xylitol, or erythritol (10 mM), and (3) in medium without any of the diesters or sugar alcohols, at 37° C. for 48 h. The cells treated with diesters 1-4 and the four sugar alcohols were then transferred to freezing media consisting of DMEM, 10% FBS and 400 mM trehalose. The cells incubated with only the medium were divided into two portions, one being directly transferred to the freezing medium containing 400 mM trehalose (control 1) and the other being placed in a different freezing medium consisting of DMEM, 10% FBS and 5% DMSO but without trehalose (control 2). After being frozen at −80° C. for 72 h, the cells were thawed in a warm water bath at 37° C. until ice melted. The post-thaw cells were either immediately analyzed for their survival or were cultured in growth media (DMEM with 10% FBS) for 24 h and 48 h before being analyzed.
Incubation (for cryopreservation). NIH/3T3 cells were seeded into cell culture treated plates (100 mm) at a density of 2×10^4 cells/mL (10 mL/plate), allowed to adhere overnight and then incubated with different sample solutions (10 mL) for 48 hours at 37° C. under 5% CO2. Control cells were incubated with growth medium.
Cryopreservation. At the end of the incubation, the cells were rinsed with PBS (2 mL) and detached using 0.25% trypsin-EDTA (3 mL). The cells were pelleted (200×g, 5 min) and resuspended in growth medium with 400 mM trehalose except for the control-2 group. For control-2 group, cells were resuspended in growth medium with 5% DMSO (v/v). An aliquot of cells of each group was then removed for counting by a DeNovix Celldrop cell counter to obtain prefreeze number of viable cells. The remaining cell suspension was transferred into a 2 mL cryogenic vial. The vials were directly transferred to −80° C. freezer without controlling cooling rate and stored at −80° C. freezer for 3 days. To thaw, cryogenic vials were removed from −80° C. freezer and suspended in a 37° C. water bath until ice melt. To the contents of each vial 1 mL growth medium was added and centrifuged (200×g , 5 min). The supernatant was discarded and cell pellet was resuspended in 1 mL growth cell medium. An aliquot of cell suspension of each group was then removed for counting with a DeNovix Celldrop cell counter to obtain the number of viable cells at 0-hr post-thaw. The remaining cell suspension was split equally and resuspended into two cell culture treated plates (100 mm) with 10 mL growth medium in each plate. The plates were then maintained for either 24 hours or 48 hours at 37° C. under 5% CO2. After being cultured for either 24 hours or 48 hours, the cells were rinsed with PBS (2 mL) and detached using 0.25% trypsin-EDTA (3 mL). The cells were pelleted (200×g, 5 min) and resuspended in growth medium. The cell suspension was then analyzed by DeNovix Celldrop cell counter to obtain number of viable cells at either 24-hr or 48-hr post-thaw.
Trypan Blue Exclusion Assay. For all time points, a sample of cells was mixed 1:1 in 0.4% trypan blue and counted using a DeNovix Celldrop. Cell recovery was calculated as the ratio of viable cells to the number of cells initially frozen.

[5] = test system: NIH-3T3 cells; test: Live/dead fluorescence microscopy of post-thaw cells (calcein-AM / ethidium homodimer-1); type: cell-based; settings: 24 h post-thaw; incubated with 10 mM for 48 h, frozen in media with 400 mM trehalose (FIG. 14)
Method: DIC and Fluorescence images capturing. NIH/3T3 cells were treated as the same as for cryopreservation experiment and were thawed in a 37° C. water bath until ice melt. Cells in each vial were then pelleted (200×g, 5 min), re-suspended in 1 mL fresh growth medium and plated into 96 well plate and grown for 24 hours. Each well was washed with sterile PBS (100 μL). Sterile PBS (200 μL) containing 2 μM calcein-AM and 4 μM ethidium homodimer-1 (EthD-1) was then added to each well. The 96-well plate was then incubated in a CO2 incubator at 37° C. for 30 min. Fresh cells without freezing were plated at similar density in 96-well plate as comparison. DIC and fluorescence microscopy images were captured at 509 and 580 nm on Axioplan 2 fluorescent microscope (Zeiss [Carl Zeiss], Thornwood, NY) with an Axiocam MRm camera (Zeiss). Axiovision 4 software (Zeiss) was used for image acquisition. Digital images were processed with ImageJ (imagej.nih.gov/ij/).

[6] = test system: NIH-3T3 cells; test: Cell size measurement after incubation with diesters; type: cell-based; settings: 10 mM, 48 h incubation (FIG. 11)
Method: Incubation (for cell size measurement). NIH/3T3 cells were seeded into 6-well plates at a density of 5×10^4 cells/mL (2 mL/well), allowed to adhere overnight and then incubated with different sample solutions (2 mL) for 48 hours at 37° C. under 5% CO2. Control cells were incubated with culture medium.
Cell size measurement. At the end of the incubation, the cells were rinsed with PBS (1 mL) and detached by 0.25% trypsin-EDTA (1 mL). The cells were pelleted (200×g, 5 min) and resuspended in PBS (1 mL). The average cell size of the cell suspension was then obtained with a DeNovix Celldrop cell counter. Bright field/counted image and histogram for one count were attached as an example (FIG. 19). Average cell diameter and statistical analysis were obtained from the histograms.

[7] = test system: NIH-3T3 cells; test: Cell growth curve; type: cell-based; settings: 10 mM, incubated for up to 72 hrs (FIG. 17)
Method: Cell growth curve. NIH/3T3 cells were seeded into 6-well plates at a density of 5×10^4 cells/mL (2 mL/well), allowed to adhere overnight and then incubated with different sample solutions (2 mL) up to 72 hours at 37° C. under 5% CO2. Control cells were incubated with culture medium. After certain time incubation, cells were rinsed with PBS (1 mL), detached by 0.25% trypsin-EDTA (1 mL), pelleted (200×g, 5 min) and resuspended in PBS (1 mL). The cell number were obtained by a DeNovix Celldrop cell counter. The 0 hour was set as the time point just after overnight adhering.

[8] = test system: NIH-3T3 cells; test: Post-thaw viability of cryopreserved NIH-3T3 cells (CCK-8), Example 1; type: cell-based; settings: Table 3, frozen −80° C. 72 hours, 400 mM trehalose, 10% DMSO set as 100%
Method: Cryopreservation protocol. […] Discarded 95% of the old media and added 0.5 mL new DMEM (pH=7.4) with 10% FBS and 400 mM trehalose (filtered with 0.22 μm filter) and re-suspended the cells. • Transferred the cell culture to cryo-tube and stored the tubes at −80° C. for 3 days. • Thawed the cells at 37° C. in a water bath until ice melted. • Counted the cell density in each cryo-tube with cell counter. • Re-cultured the cells in 96-well plate with fresh DMEM (PH=7.4) with 10% FBS. (while keeping cell density the approximately the same for each well). • Used CCK-8 kit to test the post-thaw viability after certain time.

[9] = test system: NIH-3T3 cells; test: Post-thaw total cell recovery of cryopreserved cells (trypan blue exclusion); type: cell-based; settings: incubated with 5 and 10 mM; frozen in media with 400 mM trehalose (FIG. 12)
[10] = incubated 36 hours at 5 mM without DMSO
[11] = incubated 36 hours at 10 mM without DMSO

solubility [2] [mM]	SMILES	0-hour post thaw recovery (%) ([1]; incubated with 0.5 mM for 72 hours)	Cytotoxicity ([3]; above 1 mM)	Cytotoxicity ([3]; at 0.1 mM)	Cytotoxicity ([3]; at 0.5 mM)	0-hour post thaw recovery (%) ([1]; incubated with 5 mM for 72 hours)	0-hour post thaw recovery (%) ([1]; incubated with 10 mM for 72 hours)	Cytotoxicity ([3]; up to 10 mM)	Total recovery values compared with cells frozen in media containing 5% DMSO [4]	Post-thaw recovery (%) 0-hr [4]	Post-thaw recovery (%) 24-hr [4] [%]	Post-thaw recovery (%) 48-hr [4]	Post-thaw viability/recovery in fluorescence microscopy images [5]	Average cell diameter relative to cells incubated with only the culture medium [6]	Growth of cells relative to control [7]	Post-thaw viability (%), 24 hours post thaw [8, 10] [%]	Post-thaw viability (%), 48 hours post-thaw [8, 10] [%]	Post-thaw viability (%), 24 hours post thaw [8, 11] [%]	Post-thaw viability (%), 48 hours post-thaw [8, 11] [%]	Post-thaw 0 h and 48 h total recovery rates compared with cells incubated only with the media [9]
≤ 2	N[C@@H](Cc1ccccc1)C(=O)OCC(COC(=O)[C@@H](N)Cc1ccccc1)OC(=O)[C@@H](N)Cc1ccccc1 [EGL-3Phe]	66.2 ± 10.1	apparent cytotoxicity	no toxicity	residual cytotoxicity	–	–	–	–	–	–	–	–	–	–	–	–	–	–	–
≥ 10	O=C(OCC(COC(=O)[C@@H]1CCCN1)OC(=O)[C@@H]1CCCN1)[C@@H]1CCCN1 [EGL-3Pro]	–	–	–	–	50.1 ± 6.6	65.3 ± 7.3	didn't show any toxicity	–	–	–	–	–	–	–	–	–	–	–	–
–	CCC(=O)OC[C@@H](O)[C@@H](O)[C@H](O)[C@H](O)COC(=O)CC [MannPr2]	–	–	–	–	–	–	–	the same as those seen with 5% DMSO	84% and 84.1 ± 3.3%	73.6 ± 3.2	184% and 184.1 ± 14.2%	much higher recovery than those treated with mannitol or sorbitol	small but statistically significant increases	slightly suppressed	–	–	–	–	–
–	CCC(=O)OC[C@@H](O)[C@@H](O)[C@H](O)[C@@H](O)COC(=O)CC [SorbPr2]	–	–	–	–	–	–	–	comparable to those obtained with cells frozen in media containing 5% DMSO	72.4 ± 3.4%	65.2 ± 2.2	153.2 ± 8.0%	much higher recovery than those treated with mannitol or sorbitol	small but statistically significant increases	slightly suppressed	94.5 ± 9.1	130.1 ± 6.8	128.9 ± 2.5	183.0 ± 2.9	above those of cells incubated only with the media
